The first experiment deals with HBV. As to the kind of experiment: HBV inhibition assay: anti-HBV activity in vitro in HepG2.2.15 cells (extracellular HBV DNA by qPCR). Type of experiment: cell-based. As to conditions: Hepatitis B virus, 120 h, five days after compound treatment, extracellular HBV DNA in culture supernatant by qPCR, concentration at which HBV replication is inhibited by 50%. The method in brief: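 HepG2.2.15 cells (stably carrying HBV genome) treated with half-log serially diluted compounds at 0.5% DMSO final for five days. Extracellular HBV DNA in supernatant quantified by qPCR after Proteinase K digestion; EC50 is concentration giving 50% inhibition of replication.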
Background: Real-time PCR tracks product formation cycle by cycle.
For orientation: EC50 means the concentration giving half of the maximal effect. Low readings indicate greater potency, high ones weaker potency. Consider `C[C@H]1[C@H](C)n2ncc(N3CCCC3=O)c2CN1C(=O)Nc1cc(F)c(F)c(F)c1` [Example 251, (6S,7S)-6,7-dimethyl-3-(2-oxopyrrolidin-1-yl)-N-(3,4,5-trifluorophenyl)-6,7-dihydro-4H-pyrazolo[1,5-a]pyrazine-5-carboxamide], for which the EC50 is 45 nM.
`C[C@H]1Cn2ncc(N3CC4(CC4)OC3=O)c2CN1C(=O)Nc1cc(F)c(F)c(F)c1` [Example 331, (6S)-6-methyl-3-(5-oxo-4-oxa-6-azaspiro[2.4]heptan-6-yl)-N-(3,4,5-trifluorophenyl)-6,7-dihydro-4H-pyrazolo[1,5-a]pyrazine-5-carboxamide] showed an EC50 of 12 nM.
In turn, `C[C@H]1Cn2ncc(N3CC4(CCC4)C(O)C3=O)c2CN1C(=O)Nc1cc(F)c(F)c(F)c1` (stereo partly drawn) [Example 422, (6S)-3-(8-hydroxy-7-oxo-6-azaspiro[3.4]octan-6-yl)-6-methyl-N-(3,4,5-trifluorophenyl)-6,7-dihydro-4H-pyrazolo[1,5-a]pyrazine-5-carboxamide] came in with a concentration giving a half-maximal response (EC50) of 65 nM.
For `CC1CN(c2cnn3c2CN(C(=O)Nc2cc(F)c(F)c(F)c2)[C@@H](C)C3)C(=O)CO1` (stereo partly drawn) [Example 243, (6S)-6-methyl-3-(2-methyl-5-oxo-morpholin-4-yl)-N-(3,4,5-trifluorophenyl)-6,7-dihydro-4H-pyrazolo[1,5-a]pyrazine-5-carboxamide], the response was half-maximal at 31 nM (EC50).
In turn, `CC1Cn2ncc(-c3ccc(F)cc3F)c2CN1C(=O)Nc1ccc(F)c(C#N)c1` (stereo not drawn) [Example 85, N-(3-cyano-4-fluoro-phenyl)-3-(2,4-difluorophenyl)-6-methyl-6,7-dihydro-4H-pyrazolo[1,5-a]pyrazine-5-carboxamide] registered a concentration giving a half-maximal response (EC50) of 11 nM.
Consider `Cc1nc(C2(C)CC(=O)N(c3cnn4c3CN(C(=O)Nc3cc(F)c(F)c(F)c3)[C@@H](C)C4)C2)no1` (stereo partly drawn) [Example 406, (6S)-6-methyl-3-[4-methyl-4-(5-methyl-1,2,4-oxadiazol-3-yl)-2-oxo-pyrrolidin-1-yl]-N-(3,4,5-trifluorophenyl)-6,7-dihydro-4H-pyrazolo[1,5-a]pyrazine-5-carboxamide], for which the midpoint of the response, the EC50, lay at 6 nM.
On to `O=C(Nc1cc(F)c(F)c(F)c1)N1CCn2ncc(-c3ccc(F)cc3F)c2C1` [Example 51, 3-(2,4-difluorophenyl)-N-(3,4,5-trifluorophenyl)-6,7-dihydro-4H-pyrazolo[1,5-a]pyrazine-5-carboxamide], for which it took 68 nM to reach a half-maximal effect (EC50).
On the same count and under the same terms, the result for `O=C(Nc1ccc(F)c(Cl)c1)N1CCn2nnc(-c3ccc(F)cc3F)c2C1` [Example 155, N-(3-chloro-4-fluoro-phenyl)-3-(2,4-difluorophenyl)-6,7-dihydro-4H-triazolo[1,5-a]pyrazine-5-carboxamide] reads 40 nM; that for `O=C(Nc1ccc(F)c(Cl)c1)N1CCn2cnc(-c3ccc(F)cc3)c2C1` [Example 127, N-(3-chloro-4-fluoro-phenyl)-1-(4-fluorophenyl)-6,8-dihydro-5H-imidazo[1,5-a]pyrazine-7-carboxamide], 86 nM.
Compound `Cc1nc(C2CC(=O)N(c3cnn4c3CN(C(=O)Nc3cc(F)c(F)c(F)c3)[C@@H](C)C4)C2)co1` (stereo partly drawn) [Example 350, (6S)-6-methyl-3-[4-(2-methyloxazol-4-yl)-2-oxo-pyrrolidin-1-yl]-N-(3,4,5-trifluorophenyl)-6,7-dihydro-4H-pyrazolo[1,5-a]pyrazine-5-carboxamide] showed a concentration giving a half-maximal response (EC50) of 15 nM.
`Cc1cc(NC(=O)N2CCn3cnc(-c4ccc(F)cc4F)c3C2)cc(F)c1F` [Example 167, N-(3,4-difluoro-5-methyl-phenyl)-1-(2,4-difluorophenyl)-6,8-dihydro-5H-imidazo[1,5-a]pyrazine-7-carboxamide] gave a half-maximal effective concentration (EC50) of 15 nM.
`C[C@H]1Cn2ncc(N3CC(C(=O)N4CCOCC4)CC3=O)c2CN1C(=O)Nc1cc(F)c(F)c(F)c1` (stereo partly drawn) [Example 386, (6S)-6-methyl-3-[4-(morpholine-4-carbonyl)-2-oxo-pyrrolidin-1-yl]-N-(3,4,5-trifluorophenyl)-6,7-dihydro-4H-pyrazolo[1,5-a]pyrazine-5-carboxamide] returned an EC50 of 88 nM.
`O=C(Nc1ccc(F)c(Cl)c1)N1CCn2ncc(-c3ccc(F)cc3F)c2C1` [Example 50, N-(3-chloro-4-fluoro-phenyl)-3-(2,4-difluorophenyl)-6,7-dihydro-4H-pyrazolo[1,5-a]pyrazine-5-carboxamide] had a half-maximal effective concentration (EC50) of 36 nM.
For `CC1Cn2ncc(-c3ccc(F)cn3)c2CN1C(=O)Nc1ccc(F)c(C2CC2)c1` (stereo not drawn) [Example 157, N-(3-cyclopropyl-4-fluoro-phenyl)-3-(5-fluoro-2-pyridyl)-6-methyl-6,7-dihydro-4H-pyrazolo[1,5-a]pyrazine-5-carboxamide], the EC50 is 83 nM.
On the same count and under the same terms, with `C[C@H]1Cn2ncc(N3CC(C)(C)OC3=O)c2CN1C(=O)Nc1cc(F)c(F)c(F)c1` [Example 250, (6S)-3-(5,5-dimethyl-2-oxo-oxazolidin-3-yl)-6-methyl-N-(3,4,5-trifluorophenyl)-6,7-dihydro-4H-pyrazolo[1,5-a]pyrazine-5-carboxamide] the figure was 21 nM; with `C[C@H]1Cn2ncc(N3CC(c4cncs4)CC3=O)c2CN1C(=O)Nc1cc(F)c(F)c(F)c1` (stereo partly drawn) [Example 290, (6S)-6-methyl-3-(2-oxo-4-thiazol-5-yl-pyrrolidin-1-yl)-N-(3,4,5-trifluorophenyl)-6,7-dihydro-4H-pyrazolo[1,5-a]pyrazine-5-carboxamide], 11 nM.
Compound `C[C@H]1Cn2ncc(N3C[C@@H](Oc4ncccn4)CC3=O)c2CN1C(=O)Nc1cc(F)c(F)c(F)c1` [Example 381, (6S)-6-methyl-3-[(4S)-2-oxo-4-pyrimidin-2-yloxy-pyrrolidin-1-yl]-N-(3,4,5-trifluorophenyl)-6,7-dihydro-4H-pyrazolo[1,5-a]pyrazine-5-carboxamide] came in with an EC50 of 5 nM.
Same read-out and setting: the result for `CC1Cn2ncc(C3CCCC3)c2CN1C(=O)Nc1cc(F)c(F)c(F)c1` (stereo not drawn) [Example 204, 3-cyclopentyl-6-methyl-N-(3,4,5-trifluorophenyl)-6,7-dihydro-4H-pyrazolo[1,5-a]pyrazine-5-carboxamide] reads 36 nM; that for `C[C@H]1Cn2ncc(N3CC(c4cnco4)CC3=O)c2CN1C(=O)Nc1cc(F)c(F)c(F)c1` (stereo partly drawn) [Example 247, (6S)-6-methyl-3-(4-oxazol-5-yl-2-oxo-pyrrolidin-1-yl)-N-(3,4,5-trifluorophenyl)-6,7-dihydro-4H-pyrazolo[1,5-a]pyrazine-5-carboxamide], 14 nM.
`O=C(Nc1cccc(Cl)c1)N1CCn2ncc(-c3ccccc3F)c2C1` [Example 30, N-(3-chlorophenyl)-3-(2-fluorophenyl)-6,7-dihydro-4H-pyrazolo[1,5-a]pyrazine-5-carboxamide] had an EC50 of 72 nM.
As to `C[C@H]1Cn2ncc(N3CC(c4ncccn4)CC3=O)c2CN1C(=O)Nc1cc(F)c(F)c(F)c1` (stereo partly drawn) [Example 437, (6S)-6-methyl-3-(2-oxo-4-pyrimidin-2-yl-pyrrolidin-1-yl)-N-(3,4,5-trifluorophenyl)-6,7-dihydro-4H-pyrazolo[1,5-a]pyrazine-5-carboxamide], the EC50 worked out at 6 nM.
In turn, `C[C@H]1Cn2ncc(N3CCCC3=O)c2CN1C(=O)Nc1cc(F)c(F)c(Cl)c1` [Example 231, (6S)—N-(3-chloro-4,5-difluoro-phenyl)-6-methyl-3-(2-oxopyrrolidin-1-yl)-6,7-dihydro-4H-pyrazolo[1,5-a]pyrazine-5-carboxamide] yielded an EC50 of 25 nM.
The compound `C[C@H]1Cn2ncc(N3CCCC3=O)c2CN1C(=O)Nc1cc(F)c(F)c(F)c1` [Example 356, (6S)-6-methyl-3-(2-oxopyrrolidin-1-yl)-N-(3,4,5-trifluorophenyl)-6,7-dihydro-4H-pyrazolo[1,5-a]pyrazine-5-carboxamide] had an EC50 of 50 nM.
The same measure, in the same setting: with `C[C@H]1Cn2ncc(N3CC4(CCOC4)CC3=O)c2CN1C(=O)Nc1ccc(F)c(Cl)c1` (stereo partly drawn) [Example 303, (6S)—N-(3-chloro-4-fluoro-phenyl)-6-methyl-3-(8-oxo-2-oxa-7-azaspiro[4.4]nonan-7-yl)-6,7-dihydro-4H-pyrazolo[1,5-a]pyrazine-5-carboxamide] the figure was 81 nM.
In turn, `Cc1cc(-c2cnn3c2CN(C(=O)Nc2ccc(F)c(Cl)c2)CC3)ncc1F` [Example 68, N-(3-chloro-4-fluoro-phenyl)-3-(5-fluoro-4-methyl-2-pyridyl)-6,7-dihydro-4H-pyrazolo[1,5-a]pyrazine-5-carboxamide] registered a half-maximal effective concentration (EC50) of 75 nM.
In turn, `CC1Cn2ncc(N3CCCC3=O)c2CN1C(=O)Nc1ccc(F)c(C(F)(F)F)c1` (stereo not drawn) [Example 203, N-[4-fluoro-3-(trifluoromethyl)phenyl]-6-methyl-3-(2-oxopyrrolidin-1-yl)-6,7-dihydro-4H-pyrazolo[1,5-a]pyrazine-5-carboxamide] returned an EC50 of 97 nM.
Compound `O=C(Nc1ccc(F)c(C(F)(F)F)c1)N1CCn2ncc(-c3ccccc3F)c2C1` [Example 34, 3-(2-fluorophenyl)-N-[4-fluoro-3-(trifluoromethyl)phenyl]-6,7-dihydro-4H-pyrazolo[1,5-a]pyrazine-5-carboxamide] came in with a 50% effective concentration (EC50) of 52 nM.
Same read-out and setting: with `C[C@H]1Cn2ncc(N3CC(Nc4ncccn4)CC3=O)c2CN1C(=O)Nc1cc(F)c(F)c(F)c1` (stereo partly drawn) [Example 269, (6S)-6-methyl-3-[2-oxo-4-(pyrimidin-2-ylamino)pyrrolidin-1-yl]-N-(3,4,5-trifluorophenyl)-6,7-dihydro-4H-pyrazolo[1,5-a]pyrazine-5-carboxamide] the figure was 12 nM.
Compound `CC1Cn2ncc(N3CCOC3=O)c2CN1C(=O)Nc1ccc(F)c(Cl)c1` (stereo not drawn) [Example 237, N-(3-chloro-4-fluoro-phenyl)-6-methyl-3-(2-oxooxazolidin-3-yl)-6,7-dihydro-4H-pyrazolo[1,5-a]pyrazine-5-carboxamide] returned an EC50 of 74 nM.

The experiment is the same for the next values; noted with them: five days after compound treatment, extracellular HBV DNA in culture supernatant by qPCR, concentration at which HBV replication is inhibited by 50%.
With `C[C@H]1Cn2ncc(N3CC(c4ccccc4)C(O)C3=O)c2CN1C(=O)Nc1cc(F)c(F)c(F)c1` (single isomer, unassigned) [Example 438-3], the EC50 is 44 nM.
